Results published in ChEMBL document CHEMBL1201862, “PubChem BioAssay data set” (2004).
Calls of active or inactive are those of the source.

Columns and labels:
[1] = molecular target: T1, E3 ubiquitin-protein ligase XIAP (Homo sapiens, UniProt P98170); assay: Counter Screen using XIAP-Bir3 for Chemical Antagonists of Bir1/2 domains of IAP-family anti-apoptotic proteins. [Related pubchem assays (depositor defined):AID1018, AID1449, AID1514, AID1638, AID1749, AID1750, AID488957, AID488963]
[2] = molecular target: T1, E3 ubiquitin-protein ligase XIAP; assay: small molecules displacing peptide from XIAP – biochemical, IAP family, fluorescence polarization (AID 1018); assay type: functional
Protein Tat = Protein Tat (Human immunodeficiency virus type 1 group M subtype B (isolate HXB2)(HIV-1), UniProt P04608); assay type: functional;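 also: tat binding to TAR RNA read out by fluorescence polarization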
[3] = Luminescent dose response cell-based high throughput screening assay for inhibitors of the Janus kinase 2 mutant JAK2V617F. [Related pubchem assays: 1446 (Primary screen.), 1521 (Confirmation assay.), 1486 (Counter screen.)]; assay type: functional
[4] = molecular target: Solute carrier family 12 member 2/member 5 (Homo sapiens, UniProt P55011+Q9H2X9); assay: KCC2 and NKCC1 inhibition by rubidium flux, cell-based, NKCC1 counter-screen (AID 1734); assay type: functional, HEK293
[5] = toxicity to human HepG2 hepatoma cells – cell-based, plate reader, dry powder samples, cytotoxicity control, dose response (AID 1159569); assay type: functional;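 also: inhibitor potency with signal falling toward the positive control level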
[6] = growth inhibition of yeast DHODH-expressing 3D7 parasites – SYBR Green, dry powder samples, dose response (AID 1159570); assay type: functional, cell-based;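 also: parasite growth measured after 72 hours of compound exposure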
[7] = Dd2 malaria parasite growth inhibition potency – SYBR Green, dry powder samples, dose response (AID 1159566); assay type: functional, cell-based;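 also: potency for growth inhibition with lower SYBR green DNA signal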
[8] = P. falciparum Dd2 growth inhibitors, dose response, SYBR Green, cherry-picked samples (AID 1159567); assay type: functional, cell-based
[9] = growth inhibition of PfATP4-mutant resistant parasites – NITD609-resistant line, SYBR Green, dry powder, dose response (AID 1159571); assay type: functional, cell-based;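 also: parasites synchronized at ring stage by sorbitol before testing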
[10] = molecular target: Photoreceptor-specific nuclear receptor (Homo sapiens, UniProt Q9Y5X4); assay: ligands suppressing NR2E3 nuclear receptor activity – biochemical, TR-FRET, dose response (AID 463256); assay type: functional
[11] = molecular target: Peroxisome proliferator-activated receptor gamma/Nuclear receptor corepressor 2 (Homo sapiens, UniProt P37231+Q9Y618); assay: Counterscreen for NR2E3 inverse agonists: TR-FRET-based biochemical high throughput dose response assay to identify inverse agonists of the interaction between peroxisome proliferator-activated receptor gamma (PPARg) and nuclear receptor co-repressor 2 (NCOR2).; assay type: functional
[12] = M. tuberculosis H37Rv growth inhibitors, H37Rv strain (AID 1626); assay type: functional
Estrogen receptor = molecular target: T2, Estrogen receptor (Homo sapiens, UniProt P03372); assay: ERα coactivator recruitment enhancers – biochemical, TR-FRET, ERα LBD, dose response (AID 737)
T2 sequence (P03372 whole entry): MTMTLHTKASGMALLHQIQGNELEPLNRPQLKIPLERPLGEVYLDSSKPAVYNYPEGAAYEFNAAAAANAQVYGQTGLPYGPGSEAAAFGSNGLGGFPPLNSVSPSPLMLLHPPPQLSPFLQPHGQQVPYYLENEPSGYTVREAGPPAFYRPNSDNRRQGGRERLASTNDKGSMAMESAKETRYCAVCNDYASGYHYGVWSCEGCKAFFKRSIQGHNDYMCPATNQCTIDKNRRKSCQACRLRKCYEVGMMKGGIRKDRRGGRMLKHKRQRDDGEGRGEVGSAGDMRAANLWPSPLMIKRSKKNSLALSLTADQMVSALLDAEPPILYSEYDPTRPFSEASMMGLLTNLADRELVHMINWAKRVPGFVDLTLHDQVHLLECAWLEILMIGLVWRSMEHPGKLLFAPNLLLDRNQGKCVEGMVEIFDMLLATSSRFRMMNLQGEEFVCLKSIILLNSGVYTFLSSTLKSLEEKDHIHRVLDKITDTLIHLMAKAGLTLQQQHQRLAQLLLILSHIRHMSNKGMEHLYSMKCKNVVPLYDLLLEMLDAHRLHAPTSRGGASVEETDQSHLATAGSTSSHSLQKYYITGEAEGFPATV

[13] = viability loss in Vero cells – cytotoxicity control for Vif-APOBEC3G degradation inhibitor project, dose response (AID 1117358); assay type: functional; conditions: Vero
[14] = Dd2 parasite growth inhibition in erythrocytes – SYBR Green, dry powder samples, set 9, dose response (AID 1159568); assay type: functional, cell-based
[15] = molecular target: Lytic switch protein BZLF1 (Epstein-Barr virus (strain B95-8) (HHV-4) (Human herpesvirus 4), UniProt P03206); assay: inhibition of BZLF1 ZTA DNA binding – biochemical, fluorescence polarization, Epstein-Barr virus, 1536-well, counter-screen for EBNA-1 inhibitor project, dose response (AID 2377); design: species or system human gammaherpesvirus 4;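 also: fluorescence polarization of Cy5-labelled ZRE DNA probe bound by purified Zta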
[16] = molecular target: Epstein-Barr nuclear antigen 1 (Epstein-Barr virus (strain B95-8) (HHV-4) (Human herpesvirus 4), UniProt P03211); assay: inhibition of EBV nuclear antigen 1 DNA binding – biochemical, fluorescence polarization, 1536-well, dose response (AID 2381); design: species or system human gammaherpesvirus 4;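 also: fluorescence polarization of a Cy5 DNA probe bound by EBNA-1 protein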
[17] = viability loss in HeLa cells – cytotoxicity control for MgcRacGAP inhibitor project, dose response (AID 624300); assay type: functional
Cytochrome P450 2D6 = Cytochrome P450 2D6 (Homo sapiens, UniProt P10635);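 also: CYP2D6 member of a cytochrome P450 panel assay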
[18] = molecular target: T3, Rac GTPase-activating protein 1 (Homo sapiens, UniProt Q9H0H5); assay: blockers of MgcRacGAP-driven Rac1 GTP hydrolysis – biochemical, ADP Hunter fluorescence, primary and confirmatory, confirmation (AID 624330); assay type: functional
T3 sequence (Q9H0H5 whole entry): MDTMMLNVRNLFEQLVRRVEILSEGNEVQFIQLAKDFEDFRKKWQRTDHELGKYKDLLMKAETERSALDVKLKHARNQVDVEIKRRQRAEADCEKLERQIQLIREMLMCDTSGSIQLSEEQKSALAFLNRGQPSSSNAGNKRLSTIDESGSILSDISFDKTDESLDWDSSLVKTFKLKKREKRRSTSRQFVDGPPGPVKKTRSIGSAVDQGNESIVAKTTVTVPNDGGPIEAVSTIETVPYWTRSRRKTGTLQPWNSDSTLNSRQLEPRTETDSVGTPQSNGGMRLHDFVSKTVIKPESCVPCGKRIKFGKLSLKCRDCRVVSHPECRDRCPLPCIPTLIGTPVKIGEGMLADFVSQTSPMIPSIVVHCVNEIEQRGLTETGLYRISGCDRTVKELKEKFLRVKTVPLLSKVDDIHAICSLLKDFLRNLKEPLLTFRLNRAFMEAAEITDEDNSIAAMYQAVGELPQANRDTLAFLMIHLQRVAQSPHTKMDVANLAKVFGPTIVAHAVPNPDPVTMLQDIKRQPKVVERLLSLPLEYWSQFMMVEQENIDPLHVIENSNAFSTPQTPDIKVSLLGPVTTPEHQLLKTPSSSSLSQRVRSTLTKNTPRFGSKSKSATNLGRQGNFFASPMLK

Nonstructural protein 1 = Nonstructural protein 1 (Influenza A virus, UniProt Q194T2); assay type: functional, Influenza A virus (A/California/07/2009(H1N1))
[19] = molecular target: T4, Mannose-6-phosphate isomerase (Homo sapiens, UniProt P34949); assay: MPI enzyme activity inhibition – biochemical, fluorescence intensity, coupled assay, primary screen (AID 1209)
T4 sequence (P34949 whole entry): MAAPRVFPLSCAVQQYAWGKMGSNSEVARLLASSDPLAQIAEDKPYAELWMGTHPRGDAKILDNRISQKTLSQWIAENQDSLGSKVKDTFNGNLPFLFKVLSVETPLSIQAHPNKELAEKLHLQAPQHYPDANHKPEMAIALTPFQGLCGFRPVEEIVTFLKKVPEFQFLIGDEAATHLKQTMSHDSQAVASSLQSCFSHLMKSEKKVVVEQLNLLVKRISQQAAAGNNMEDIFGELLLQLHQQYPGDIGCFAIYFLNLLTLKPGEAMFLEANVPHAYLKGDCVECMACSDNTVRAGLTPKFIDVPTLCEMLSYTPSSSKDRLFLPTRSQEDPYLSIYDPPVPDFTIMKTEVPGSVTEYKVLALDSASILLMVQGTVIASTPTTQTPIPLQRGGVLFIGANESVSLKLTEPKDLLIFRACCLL

[20] = molecular target: Heat shock protein HSP 90-alpha (Homo sapiens, UniProt P07900); assay: Luminescence-based dose response biochemical high throughput screening assay for inhibitors of the Heat Shock Protein 90 (HSP90). [Related pubchem assays: 1831 (Summary AID.), 1846 (Confirmation screen.), 1789 (Primary screen.)]
Estrogen receptor beta [21] = molecular target: T5, Estrogen receptor beta (Homo sapiens, UniProt Q92731);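 also: recombinant ER-beta bound to coactivator SRC1 peptide in presence of estradiol agonist; inhibitors block coactivator peptide binding and lower the FRET signal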
Estrogen receptor beta [22] = molecular target: T5, Estrogen receptor beta; assay: blockers of SRC-3 recruitment to ERβ – biochemical, ELISA, streptavidin-HRP readout, orthogonal assay, confirmation (AID 1060)
14-3-3 protein gamma = 14-3-3 protein gamma (Homo sapiens, UniProt P61981); assay: modulators of 14-3-3 gamma client binding – dose response (AID 711); assay type: functional
[23] = M. tuberculosis growth inhibition, HTS (AID 449762); assay type: functional
[24] = Luminescence Cell-Based Dose Response to Identify Activators of 5'UTR Stem-Loop Driven Prion Protein mRNA Translation in H4-C Neuroglioblastoma Cells. [Related pubchem assays: 1829 (Project Summary), 1814 (Primary HTS)]; assay type: functional
[25] = Luminescence Cell-Based Dose Response HTS to Identify Activators of Luciferase Translation or Activity in H4 […] Cells. [Related pubchem assays: 1829 (Project Summary), 1814 (Primary HTS)]; assay type: functional
[26] = molecular target: Disintegrin and metalloproteinase domain-containing protein 17 (Homo sapiens, UniProt P78536); assay: inhibition of ADAM17 substrate cleavage – biochemical, quenched FRET substrate, counter-screen for ADAM10 exosite inhibitor project, dose response (AID 743253)
[27] = Luminescence Cell-Based Dose Confirmation to Identify Activators of 5'UTR Stem-Loop Driven Alpha-Synuclein mRNA Translation in H4 Neuroglioblastoma Cells. [Related pubchem assays: 1829 (Project Summary), 1814 (Primary HTS)]; assay type: functional
[28] = Luminescence Cell-Based Dose Response to Identify Activators of Luciferase Translation or Activity in H4-C Neuroglioblastoma Cells. [Related pubchem assays: 1829 (Project Summary), 1814 (Primary HTS)]; assay type: functional
NADPH oxidase 1 = NADPH oxidase 1 (Homo sapiens, UniProt Q9Y5S8); assay: Late-stage luminescence-based cell-based dose response assay to identify inhibitors of NADPH oxidase 1 (NOX1): Purchased analogs 2.; assay type: functional
[29] = molecular target: Sphingosine 1-phosphate receptor 3 (Homo sapiens, UniProt Q99500); assay: Dose response cell-based high throughput screening assay for antagonists of the Sphingosine 1-Phosphate Receptor 3 (S1P3). [Related pubchem assays: 1429, 485 ]; assay type: functional
[30] = molecular target: 5-hydroxytryptamine receptor 1E (Homo sapiens, UniProt P28566); assay: Counterscreen assay for S1P3 antagonists: Dose response cell-based high throughput screening assay to identify antagonists of the 5-Hydroxytryptamine Receptor Subtype 1E (5HT1E). [Related pubchem assays: 1429, 485 ]; assay type: functional
[31] = toxicity to human hepatoma HepG2 cells – cell-based, cherry-picked samples, cytotoxicity control, dose response (AID 1159577); assay type: functional

T1 sequence (P98170 whole entry): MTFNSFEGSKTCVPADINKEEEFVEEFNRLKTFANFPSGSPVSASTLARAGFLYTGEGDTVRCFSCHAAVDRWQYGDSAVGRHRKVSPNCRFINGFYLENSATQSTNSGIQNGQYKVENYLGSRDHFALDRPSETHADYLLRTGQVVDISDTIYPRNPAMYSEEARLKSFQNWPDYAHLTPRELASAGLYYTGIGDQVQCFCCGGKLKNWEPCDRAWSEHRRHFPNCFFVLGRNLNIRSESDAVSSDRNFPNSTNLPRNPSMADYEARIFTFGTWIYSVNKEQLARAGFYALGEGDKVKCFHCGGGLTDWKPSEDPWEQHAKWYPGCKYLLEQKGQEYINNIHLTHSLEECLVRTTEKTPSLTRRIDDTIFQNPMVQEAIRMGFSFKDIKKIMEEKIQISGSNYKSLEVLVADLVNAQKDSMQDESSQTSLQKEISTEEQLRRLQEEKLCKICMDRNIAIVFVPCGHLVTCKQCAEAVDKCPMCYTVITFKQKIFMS
T5 sequence (Q92731 whole entry): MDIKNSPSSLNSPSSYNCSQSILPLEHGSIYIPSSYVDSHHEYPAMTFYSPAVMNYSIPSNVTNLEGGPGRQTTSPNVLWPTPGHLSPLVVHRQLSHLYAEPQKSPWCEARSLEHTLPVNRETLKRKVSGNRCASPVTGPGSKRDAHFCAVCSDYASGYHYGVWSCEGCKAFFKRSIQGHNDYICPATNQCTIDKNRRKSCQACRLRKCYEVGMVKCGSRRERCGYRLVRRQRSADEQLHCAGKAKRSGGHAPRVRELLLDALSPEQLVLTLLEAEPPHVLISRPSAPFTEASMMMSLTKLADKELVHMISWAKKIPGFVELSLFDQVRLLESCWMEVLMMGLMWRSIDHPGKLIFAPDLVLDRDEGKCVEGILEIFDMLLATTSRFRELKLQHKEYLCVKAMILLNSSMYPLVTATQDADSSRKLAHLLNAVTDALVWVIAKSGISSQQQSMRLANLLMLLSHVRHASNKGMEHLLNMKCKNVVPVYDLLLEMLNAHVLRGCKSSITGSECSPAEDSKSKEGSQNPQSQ
Protein Tat, sequence (P04608 whole entry): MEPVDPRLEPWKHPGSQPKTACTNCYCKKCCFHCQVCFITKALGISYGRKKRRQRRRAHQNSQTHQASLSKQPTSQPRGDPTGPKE
Lytic switch protein BZLF1, sequence (P03206 whole entry): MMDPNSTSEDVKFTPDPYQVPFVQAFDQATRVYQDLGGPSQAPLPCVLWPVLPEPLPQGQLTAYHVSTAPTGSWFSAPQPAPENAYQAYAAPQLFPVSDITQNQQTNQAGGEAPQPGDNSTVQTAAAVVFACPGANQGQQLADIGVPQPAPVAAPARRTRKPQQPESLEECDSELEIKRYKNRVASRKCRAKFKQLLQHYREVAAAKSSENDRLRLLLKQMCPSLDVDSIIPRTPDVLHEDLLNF
Disintegrin and metalloproteinase domain-containing protein 17, sequence (P78536 whole entry, the tested form may be a part): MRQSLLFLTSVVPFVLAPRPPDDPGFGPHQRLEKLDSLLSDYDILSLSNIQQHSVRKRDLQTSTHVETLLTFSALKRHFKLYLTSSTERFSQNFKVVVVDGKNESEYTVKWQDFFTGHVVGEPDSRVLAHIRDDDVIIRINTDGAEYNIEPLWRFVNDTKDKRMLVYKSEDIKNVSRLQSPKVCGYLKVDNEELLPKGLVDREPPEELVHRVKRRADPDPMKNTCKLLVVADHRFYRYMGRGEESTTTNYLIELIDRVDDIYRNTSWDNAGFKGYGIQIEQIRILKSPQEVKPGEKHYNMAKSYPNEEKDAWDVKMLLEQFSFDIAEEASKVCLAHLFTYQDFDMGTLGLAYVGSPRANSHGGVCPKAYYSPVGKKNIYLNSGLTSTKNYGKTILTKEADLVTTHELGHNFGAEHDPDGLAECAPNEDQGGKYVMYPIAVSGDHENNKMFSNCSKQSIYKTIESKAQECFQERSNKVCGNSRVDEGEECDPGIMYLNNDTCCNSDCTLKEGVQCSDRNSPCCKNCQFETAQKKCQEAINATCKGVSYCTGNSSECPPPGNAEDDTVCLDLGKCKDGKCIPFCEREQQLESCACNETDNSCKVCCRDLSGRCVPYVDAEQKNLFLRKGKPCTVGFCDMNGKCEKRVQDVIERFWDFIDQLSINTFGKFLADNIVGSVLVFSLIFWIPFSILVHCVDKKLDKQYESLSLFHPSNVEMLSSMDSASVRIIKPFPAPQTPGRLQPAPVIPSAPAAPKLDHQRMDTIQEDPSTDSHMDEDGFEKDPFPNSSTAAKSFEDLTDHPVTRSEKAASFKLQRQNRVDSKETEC
14-3-3 protein gamma, sequence (P61981 whole entry): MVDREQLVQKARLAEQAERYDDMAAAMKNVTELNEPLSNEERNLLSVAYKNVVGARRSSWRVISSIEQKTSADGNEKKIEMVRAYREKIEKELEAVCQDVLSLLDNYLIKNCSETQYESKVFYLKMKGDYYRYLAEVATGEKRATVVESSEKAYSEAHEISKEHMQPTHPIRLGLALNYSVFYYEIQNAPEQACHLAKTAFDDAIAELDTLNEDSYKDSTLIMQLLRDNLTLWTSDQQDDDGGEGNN
NADPH oxidase 1, sequence (Q9Y5S8 whole entry): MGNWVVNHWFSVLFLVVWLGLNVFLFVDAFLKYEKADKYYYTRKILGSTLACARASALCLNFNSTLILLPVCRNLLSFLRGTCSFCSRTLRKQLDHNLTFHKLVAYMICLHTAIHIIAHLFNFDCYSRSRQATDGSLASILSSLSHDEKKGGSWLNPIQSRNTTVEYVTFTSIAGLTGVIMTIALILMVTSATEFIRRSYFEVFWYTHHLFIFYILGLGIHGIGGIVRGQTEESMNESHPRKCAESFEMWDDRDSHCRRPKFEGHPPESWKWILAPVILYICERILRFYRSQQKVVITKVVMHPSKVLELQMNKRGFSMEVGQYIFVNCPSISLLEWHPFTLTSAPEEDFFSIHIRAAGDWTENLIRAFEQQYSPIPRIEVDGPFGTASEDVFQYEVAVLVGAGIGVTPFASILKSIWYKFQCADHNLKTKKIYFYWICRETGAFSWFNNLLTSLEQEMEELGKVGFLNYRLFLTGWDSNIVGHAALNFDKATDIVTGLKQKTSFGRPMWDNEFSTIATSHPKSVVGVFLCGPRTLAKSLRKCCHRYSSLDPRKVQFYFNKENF
5-hydroxytryptamine receptor 1E, sequence (P28566 whole entry): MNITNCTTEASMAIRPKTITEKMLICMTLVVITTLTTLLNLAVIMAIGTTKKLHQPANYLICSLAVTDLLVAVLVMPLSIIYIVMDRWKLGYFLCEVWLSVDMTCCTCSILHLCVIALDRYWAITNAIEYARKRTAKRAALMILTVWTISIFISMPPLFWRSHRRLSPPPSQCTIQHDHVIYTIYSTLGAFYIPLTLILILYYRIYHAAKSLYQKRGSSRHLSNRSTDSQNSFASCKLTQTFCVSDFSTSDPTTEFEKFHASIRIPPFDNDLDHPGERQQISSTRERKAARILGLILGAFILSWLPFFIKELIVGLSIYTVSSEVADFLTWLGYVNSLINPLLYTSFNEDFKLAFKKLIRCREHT
Epstein-Barr nuclear antigen 1, sequence (P03211 whole entry): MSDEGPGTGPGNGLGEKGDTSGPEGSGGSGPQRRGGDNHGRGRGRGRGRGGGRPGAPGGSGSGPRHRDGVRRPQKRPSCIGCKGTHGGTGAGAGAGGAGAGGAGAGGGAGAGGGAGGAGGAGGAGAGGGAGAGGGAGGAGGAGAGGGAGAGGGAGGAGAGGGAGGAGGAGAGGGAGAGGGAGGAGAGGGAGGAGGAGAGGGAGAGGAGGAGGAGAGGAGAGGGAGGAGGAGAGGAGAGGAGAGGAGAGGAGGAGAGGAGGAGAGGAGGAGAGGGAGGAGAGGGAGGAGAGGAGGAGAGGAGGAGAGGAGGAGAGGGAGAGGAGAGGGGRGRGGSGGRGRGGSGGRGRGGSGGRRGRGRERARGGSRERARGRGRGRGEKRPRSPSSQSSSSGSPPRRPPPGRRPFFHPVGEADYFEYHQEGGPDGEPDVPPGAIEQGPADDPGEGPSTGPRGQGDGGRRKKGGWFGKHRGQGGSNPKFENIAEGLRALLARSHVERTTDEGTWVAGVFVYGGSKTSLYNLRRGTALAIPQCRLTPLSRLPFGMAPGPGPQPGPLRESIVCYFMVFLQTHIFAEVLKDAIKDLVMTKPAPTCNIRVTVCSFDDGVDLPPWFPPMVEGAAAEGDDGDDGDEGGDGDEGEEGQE
Nonstructural protein 1, sequence (Q194T2 whole entry): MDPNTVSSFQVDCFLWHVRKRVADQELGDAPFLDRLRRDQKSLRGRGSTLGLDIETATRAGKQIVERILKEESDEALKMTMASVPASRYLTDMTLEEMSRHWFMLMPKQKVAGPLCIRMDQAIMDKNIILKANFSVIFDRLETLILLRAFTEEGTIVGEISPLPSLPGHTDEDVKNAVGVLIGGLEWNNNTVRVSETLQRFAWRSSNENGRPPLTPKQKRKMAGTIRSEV
Sphingosine 1-phosphate receptor 3, sequence (Q99500 whole entry): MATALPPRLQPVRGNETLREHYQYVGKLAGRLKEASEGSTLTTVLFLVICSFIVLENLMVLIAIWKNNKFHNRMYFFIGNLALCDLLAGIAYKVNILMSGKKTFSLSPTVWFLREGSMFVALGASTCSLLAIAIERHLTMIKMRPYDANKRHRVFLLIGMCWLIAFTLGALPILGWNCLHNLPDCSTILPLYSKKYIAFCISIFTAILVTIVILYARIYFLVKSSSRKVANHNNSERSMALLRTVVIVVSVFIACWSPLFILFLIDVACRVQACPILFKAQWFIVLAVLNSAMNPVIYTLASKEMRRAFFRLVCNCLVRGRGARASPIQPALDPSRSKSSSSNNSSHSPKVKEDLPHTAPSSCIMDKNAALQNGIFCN

O=C(Nc1ccccc1)c1cc(S(=O)(=O)N2CCSCC2)ccc1Cl
IC50 [1]: > 100 µM (inactive) | IC50 [2]: > 100 µM (not active)

COC(=O)C(C)Sc1nnc(Cc2cc(O)nc(O)n2)n1-c1cc(C)ccc1C (stereo not drawn)
IC50 (Protein Tat): > 100 µM (active)

COc1ccc(-c2cnc3c(c2)CCC3(C#N)C#N)cc1
IC50 [3]: 0.768 µM (active)

O=C(Cn1cnc2c(nnn2Cc2ccccc2)c1=O)N1CCCc2ccccc21
IC50 [4]: 6 µM (active)

CCCN(C)C[C@@H]1Oc2cc(C#Cc3cccnc3)ccc2S(=O)(=O)N([C@@H](C)CO)C[C@H]1C
AC50 [5]: 79.5 µM (active) | AC50 [6]: 3.59 µM (active) | AC50 [7]: 2.62 µM (active) | AC50 [8]: 2.13 µM (active) | AC50 [9]: 2.99 µM (active)

CC1(C)Cc2ccccc2-c2nnc(SCC(=O)N3CCc4ccccc43)n21
IC50 [10]: 4.42 µM (active) | IC50 [11]: 7.95 µM (active)

CCOC(=O)c1ccc(NC(=O)Cn2cccc2)cc1
IC50 [12]: > 100 µM (active)

CCOC(=O)c1cc2c(c(CSc3nc4ccccc4c(=O)n3Cc3ccco3)c1)OCOC2
EC50 (Estrogen receptor): 3.27 µM (active)

CCCCCO/C(O)=C1\C(C)=Nc2nnnn2C1c1ccccc1Cl (stereo not drawn)
CC50 [13]: > 40 µM (active)

C[C@@H]1CCCCO[C@H](CN(C)S(=O)(=O)c2ccccc2)[C@@H](C)CN([C@@H](C)CO)C(=O)c2cc(NC(=O)Nc3ccc4c(c3)OCO4)ccc2O1
AC50 [14]: 1.64 µM (active)

Cc1ccc(/C=C2\SC(=S)N(CCC(=O)NNC(=O)c3ccc(O)cc3)C2=O)cc1
IC50 [15]: > 111 µM (not active) | IC50 [16]: 11.6 µM (not active)

CC(C)/N=c1\scc(-c2ccco2)n1/N=C/c1ccc(O)c(O)c1
CC50 [17]: 99.4 µM (active) | AC50 (Cytochrome P450 2D6): 14.1 µM (inconclusive) | IC50 [18]: 56.3 µM (active) | IC50 (Nonstructural protein 1): 39.3 µM (active) | IC50 [19]: > 50 µM (not active)

Cc1nc2cc(C(=O)O)ccc2[nH]1
IC50 [20]: 7.21 µM (active) | IC50 (Estrogen receptor beta [21]): 24.7 µM (active) | IC50 (Estrogen receptor beta [22]): 99.5 µM (not active)

COc1ccc(C(=O)Oc2ccc(C(C)=O)cc2)c(OC)c1
IC50 (14-3-3 protein gamma): > 50 µM (not active)

C(=C\c1ccccc1)/C=N/Nc1nc2ccccc2s1
IC50 [23]: > 100 µM (active) | EC50 [24]: 0.349 µM (active) | EC50 [25]: < 0.1 µM (inconclusive) | IC50 [26]: > 69.5 µM (inactive) | EC50 [27]: 0.366 µM (active) | EC50 [28]: 0.289 µM (active)

COc1ccc(/C=N/Nc2c(F)c(F)c(F)c(F)c2F)cc1
IC50 (NADPH oxidase 1): > 17 µM (not active)

Cc1ccccc1C(=O)N1CCN(c2ccc(NC(=O)c3ccc4c(c3)OCO4)cc2)CC1
IC50 [29]: > 50 µM (not active) | IC50 [30]: 13.7 µM (not active)

CCS(=O)(=O)N1CC2(C1)[C@@H](c1ccccc1)[C@H](CO)N2Cc1ccc(F)cc1
AC50 [31]: > 39 µM (inactive) | AC50 [8]: 6 µM (active)
